{"source": "patent US10918647B2", "about": "“Selective bromodomain inhibition of fungal Bdf1” (University of Southern California, priority 2016, dated 2021)", "key": {"[1]": {"biological_target": "T1, CaBdf1 BD1 (Candida albicans, UniProt Q5A4W8)", "T1 sequence (Q5A4W8 206-315 limits assumed)": "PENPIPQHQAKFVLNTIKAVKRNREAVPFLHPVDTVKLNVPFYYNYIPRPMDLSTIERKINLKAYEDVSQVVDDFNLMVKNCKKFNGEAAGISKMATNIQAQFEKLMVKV", "experiment": "HTRF inhibition assay of BD binding to H4ac4 peptide", "source_text": "(§1) FIG. 7. Homogeneous time-resolved fluorescence (HTRF) assay. a. Assay configuration. A biotinylated tetra-acetylated histone peptide is bound to streptavidin beads which are coupled to a terbium-based donor fluorophore, lumi-Tb cryptate. GST-tagged bromodomain is bound by an anti-GST antibody coupled to the acceptor fluorophore, an organic molecule termed D2. Peptide binding by the bromodomain brings the donor and acceptor within FRET distance. In this situation, excitation of the donor at 337 nm causes energy transfer to the […], whose emitted fluorescence is monitored at 665 nm in a time-resolved manner so as to eliminate transient background fluorescence. b-d.\n(§2) A key consideration in establishing fungal BET BD inhibition as a feasible chemotherapeutic strategy is whether these domains can be targeted by small-molecule inhibitors without antagonizing human BET function. To probe the similarity between the ligand binding pockets of C. albicans and human BET BDs, we asked whether human BET inhibitors could inhibit CaBdf1 BDs."}, "[2]": {"tested_on": "C. albicans", "experiment": "Growth of C. albicans in vitro (liquid culture growth assay)", "type": "cell-based", "source_text": "FIG. 8. CaBdf1 BDs are insensitive to human BET inhibitors. (a) HTRF inhibition assays performed on BD1 and BD2 from CaBdf1 and human Brd4 to evaluate the effects of four human BET inhibitors. Inhibition curves are shown as closed (BD1) and open (BD2) circles in green (Brd4) and magenta (Bdf1). IC50 values are summarized below each graph. (b) Thermal stability of the indicated BET BDs in the presence and absence of BET inhibitors determined by differential scanning fluorimetry. The thermal shift (ΔTm) for each inhibitor is indicated. Curves obtained in the presence (thick lines) or absence (thin lines) are plotted for CaBDF1 BD1 (solid magenta), CaBDF1 BD2 (dashed magenta) and human Brd4 (green). […] Experiments have been performed in the presence of doxycycline, which represses the pTetO-BDF1 allele.\nFIG. 13. Identification of a CaBdf1-BD1 inhibitor that phenocopies BD1 inactivation. (a) Chemical structure of dibenzothiazepinone compound MS5. (b) HTRF assay showing that MS5 inhibits CaBdf1-BD1 preferentially over CaBdf1-BD2 and with weak selectivity compared to hBrd4-BD1. (c) ITC experiment showing binding of MS5 towards the indicated BD. (d) Effect of MS5 on the growth of C. albicans. The first allele is indicated below the graph, the second is pMET-BDF1 (top) orpTetO-BDF1 (bottom). Strains were grown in the presence of doxycycline or methionine/cysteine, respectively, to repress expression from the second allele. MS5 compromises growth when CaBdf1-BD2 is inactivated by deletion or point-mutation. Statistical test is a two-sided paired t-test performed on ≥5 biological replicates (*p=0.01 to 0.05; **p=0.001 to 0.01; ***p<0.001). (e) Dose-response experiment showing the effect of MS5 on Bdf1 mutant strains.\nWe next tested the effect of the identified hit compounds on the growth of C. albicans in vitro. […] We therefore tested compounds that inhibited CaBdf1-BD1 with micromolar IC50 values but which were unselective or only weakly selective for the fungal BD."}, "[3]": {"biological_target": "T1, CaBdf1 BD1", "experiment": "Isothermal titration calorimetry (ITC)", "type": "binding, C. albicans"}, "[4]": {"biological_target": "T2, CaBdf1 BD2 (Candida albicans, UniProt Q5A4W8)", "T2 sequence (Q5A4W8 383-492 limits assumed)": "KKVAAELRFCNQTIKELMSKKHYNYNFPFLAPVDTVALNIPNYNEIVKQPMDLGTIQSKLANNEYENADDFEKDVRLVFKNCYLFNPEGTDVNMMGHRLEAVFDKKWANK", "experiment": "Isothermal titration calorimetry (ITC)", "type": "binding, C. albicans"}, "[5]": {"biological_target": "T2, CaBdf1 BD2", "experiment": "HTRF inhibition assay of BD binding to H4ac4 peptide", "settings": "for inhibition of CaBdf1 BD2: HTRF", "source_text": "as §1, with “b-d. Binding of biotinylated tetra-acetylated H4 (H4ac4) peptide by the BD1 bromodomains from human Brd4 (b), S. cerevisiae Bdf1 (c) and C. albicans Bdf1 (d) as measured by an increase in HTRF signal with increasing peptide concentration.” for “b-d.”\nas §2"}, "[6]": {"biological_target": "Brd4 BD1 (Homo sapiens, UniProt O60885)", "experiment": "Isothermal titration calorimetry (ITC)", "type": "binding"}}}
{"smiles": "COc1cc2c(cc1-c1c(C)noc1C)ncc1[nH]c(=O)n([C@H](C)c3ccccn3)c12", "note": "[IBET-151, reference compound]", "values": [{"measurement": "reduction in sensitivity relative to Brd4", "setting": "[1]; CaBdf1 BD1 vs corresponding Brd4 BD", "value": 60, "unit": "fold"}, {"measurement": "IC50", "setting": "[1]; HTRF, strongest inhibition", "value": "~300", "unit": "nM"}, {"measurement": "effect on C. albicans growth", "setting": "[2]; even when Bdf1 bromodomains are deleted, in the presence of doxycycline (represses pTetO-BDF1 allele)", "value": "do not affect"}, {"measurement": "effect on the growth of C. albicans in vitro", "setting": "[2]", "value": "none of the BET inhibitors had any significant effect"}]}
{"smiles": "Cc1sc2c(c1C)C(c1ccc(Cl)cc1)=N[C@@H](CC(=O)OC(C)(C)C)c1nnc(C)n1-2", "note": "[JQ1, reference compound]", "values": [{"measurement": "binding (ITC)", "setting": "[3]; ITC", "value": "no binding was detected"}, {"measurement": "binding (ITC)", "setting": "[4]; ITC", "value": "no binding was detected"}]}
{"smiles": "O=C1c2ccccc2Sc2cc(-c3noc(-c4cnccn4)n3)ccc2N1C1CC1", "note": "[MS4]", "values": [{"measurement": "inhibition of CaBdf1 BD2", "setting": "[5]", "value": "only modest inhibition"}, {"measurement": "binding (ITC)", "setting": "[6]", "value": "no significant binding was detected"}, {"measurement": "effect on the growth of C. albicans in vitro", "setting": "[2]", "value": "little effect"}]}
{"smiles": "CN1C(=O)c2ccccc2Sc2cc(NC(=O)C3CCCO3)ccc21", "note": "(centres unmarked) [MS5, N-(10-methyl-11-oxo-10,11-dihydrodibenzo[b,f][1,4]thiazepin-7-yl)tetrahydrofuran-2-carboxamide]", "values": [{"measurement": "inhibition of CaBdf1 BD2", "setting": "[5]", "value": "only a weak inhibitory effect"}, {"measurement": "Kd / affinity", "setting": "[3]; ITC (MS5: HTRF and ITC assays)", "value": "low micromolar"}, {"measurement": "IC50", "setting": "[2]; Candida albicans, read-out: IC50 (growth dose-response curve)", "value": 40000, "unit": "nM"}, {"measurement": "effect on growth compared to vehicle (DMSO)", "setting": "[2]; liquid culture, strains expressing WT Bdf1 or mutant Bdf1 inactivated in the first BD", "value": "little effect"}, {"measurement": "effect on growth", "setting": "[2]; strains inactivated in BD2", "value": "significantly compromised"}]}
{"smiles": "Cc1ccc(Nc2c(-c3ccc(O)cc3)nc3c(C)cccn23)cc1", "note": "[MS51, 4-(8-Methyl-3-(p-tolylamino)imidazo[1,2-a]pyridin-2-yl)phenol]", "values": [{"measurement": "selectivity relative to BD1 of either CaBdf1 or human Brd4", "setting": "[5]", "value": "high selectivity"}, {"measurement": "Kd", "setting": "[4]; HTRF and ITC assays, read-out: affinity", "value": "1000 to 2000", "unit": "nM"}]}
{"smiles": "CCOC(=O)Nc1cc(-c2ccc(C)c(NS(C)(=O)=O)c2)nn2c(C)nnc12", "note": "[bromosporine, reference compound]", "values": [{"measurement": "IC50", "setting": "[5]", "value": "~300", "unit": "nM"}]}
